Reference: patent publication US11667631B2, “FGFR4 inhibitor, preparation method therefor, and applications thereof” (Jiangsu Hansoh Pharmaceutical Group Co., Ltd., priority 2016, dated 2023)
Like-named read-outs stand apart in the source and are kept apart here.

What was measured:
Hep 3B cells = test: Inhibition of Hep 3B cell proliferation (CellTiter-Glo); format: cell-based
Protocol: In this experiment, the inhibitory effect of the compounds on Hep 3B cell proliferation was tested by a CellTiter-Glo method, and the half maximal inhibitory concentration (IC50) of the compounds on the activity of cell proliferation was determined.
1) A 96-well cell culture plate was seeded with 50˜100 μL of Hep 3B cell suspension at a density of 1˜5×10^4 cells/ml. The culture plate was incubated in an incubator for 16˜24 hours (37° C., 5% CO2).
(§1) 2) Different concentrations of the test compound in a gradient dilution were added to the cells in the culture plate. The culture plate was incubated in an incubator for 72 hours (37° C., 5% CO2).
(§2) 3) 50˜100 μL of CellTiter-Glo reagent were added to each well. Then, the culture plate was shaken or left to stand for 5˜30 minutes at room temperature.
(§3) 4) The chemiluminescence signal values of each plate were determined by a microplate reader.
(§4) 5) The inhibition rates were calculated according to the chemiluminescence signal values.

HuH-7 cells = test: Inhibition of HuH-7 cell proliferation (CellTiter-Glo); format: cell-based; details: Homo sapiens, Huh-7, 72 h, read-out: HuH-7 IC50
Protocol: In this experiment, the inhibitory effect of the compounds on HuH-7 cell proliferation was tested by a CellTiter-Glo method, and the half maximal inhibitory concentration (IC50) of the compounds on the activity of cell proliferation was determined.
1) A 96-well cell culture plate was seeded with 50˜100 μL of HuH-7 cell suspension at a density of 1˜5×10^4 cells/ml. The culture plate was incubated in an incubator for 16˜24 hours (37° C., 5% CO2).
as §1
3) 50˜100 μL of CellTiter-Glo reagent was added to each well. Then, the culture plate was shaken or left to stand for 5˜30 minutes at room temperature.
as §3, §4
(§5) 6) The IC50 of the compound was obtained by curve fitting according to the inhibition rates at different concentrations, and the cell activity of the specific example compounds is shown in Table 2.

SK-HEP-1 cells = test: Inhibition of SK-HEP-1 cell proliferation (CellTiter-Glo); format: cell-based; details: read-out: SK-HEP-1 IC50
Protocol: In this experiment, the inhibitory effect of the compounds on SK-HEP-1 cell proliferation was tested by a CellTiter-Glo method, and the half maximal inhibitory concentration (IC50) of the compounds on the activity of cell proliferation was determined.
1) A 96-well cell culture plate was seeded with 50˜100 μL of SK-HEP-1 cell suspension at a density of 1˜5×10^4 cells/ml. The culture plate was incubated in an incubator for 16˜24 hours (37° C., 5% CO2).
as §1, §2, §3, §4, §5

[1] = Pharmacokinetic (PK) analysis in rats; format: in vivo, Sprague Dawley (SD) rats; details: SD rats, single intragastric administration, 5 mg/kg; for Peak Time tmax: (sampling in hours); for AUC(0-t) / AUC(0-inf) / half-life / MRT / Cmax: Sprague-Dawley, rat, plasma, po; for AUC(0-t): read-out: Area Under Curve AUC0-t; for AUC(0-inf): read-out: Area Under Curve AUC0-∞; for half-life: read-out: Half-Time t1/2 (converted); for MRT: read-out: Mean Residence Time MRT; for Cmax: read-out: Plasma Concentration Cmax
Protocol: 1) 0.2 ml of intravenous blood was collected and placed in a K2EDTA test tube. The blood was centrifuged at room temperature at the speed of 1000˜3000×g for 5˜20 minutes to isolate the plasma, which was then stored at −80° C.
2) 160 μL of acetonitrile was added to 40 μL of plasma sample for precipitation, and then the mixture was centrifuged at the speed of 500˜2000×g for 5˜20 minutes.
3) 100 μL of treated solution was taken, and the concentration of the test compound was analyzed by LC/MS/MS. The LC/MS/MS analytical instrument was AB Sciex API 4000. • Liquid chromatography analysis: • Condition of Liquid chromatography: Shimadzu LC-20AD pump • Chromatographic column: phenomenex Gemiu 5 um C18 50×4.6 mm • Mobile phase: Solution A is 0.1% formic acid aqueous solution, and Solution B is acetonitrile • Flow rate: 0.8 mL/min • Elution time: 0-3.5 minutes, the eluent was used as follows: […]

FGFR1 kinase = FGFR1 kinase (Homo sapiens (Human), UniProt P11362); test: Enzymologic experiment of FGFR1 (TR-FRET); format: biochemical; details: FGFR1 kinase activity
Protocol: In this experiment, the inhibitory effect of the compounds on FGFR1 kinase activity was tested by a fluorescence resonance energy transfer (TR-FRET) method, and the half maximal inhibitory concentration (IC50) of the compounds on the FGFR1 kinase activity was determined.
1) 1˜5 μL of FGFR1 enzyme solution was added to a 384-well plate, and the final concentration of the enzyme was 0.1˜5 nM.
2) 1˜5 μL of diluted solution in gradient of the compound was added.
3) 1˜5 μL of a substrate mixture containing substrate polypeptide with a final concentration of 5˜50 nM and ATP with a final concentration of 10˜200 μM was added.
4) The mixture was incubated for 0.5˜3 hours at room temperature.
5) 10 μL of EDTA and a test solution comprising labeled antibody were added, and the plate was incubated for 1 hour at room temperature.
6) The fluorescence signal values of each plate were determined by a microplate reader at 665 nm.
7) The inhibition rates were calculated according to the fluorescence signal values.
8) The IC50 of the compound was obtained by curve fitting according to the inhibition rates at different concentrations, and the enzymatic activity of the specific example compounds is shown in Table 1.

[2] = Homo sapiens, Hep3B, 72 h, read-out: Hep 3B IC50, Hep 3B cell proliferation, 72 hours, CellTiter-Glo

Chain of FGFR1 kinase (P11362 22-822): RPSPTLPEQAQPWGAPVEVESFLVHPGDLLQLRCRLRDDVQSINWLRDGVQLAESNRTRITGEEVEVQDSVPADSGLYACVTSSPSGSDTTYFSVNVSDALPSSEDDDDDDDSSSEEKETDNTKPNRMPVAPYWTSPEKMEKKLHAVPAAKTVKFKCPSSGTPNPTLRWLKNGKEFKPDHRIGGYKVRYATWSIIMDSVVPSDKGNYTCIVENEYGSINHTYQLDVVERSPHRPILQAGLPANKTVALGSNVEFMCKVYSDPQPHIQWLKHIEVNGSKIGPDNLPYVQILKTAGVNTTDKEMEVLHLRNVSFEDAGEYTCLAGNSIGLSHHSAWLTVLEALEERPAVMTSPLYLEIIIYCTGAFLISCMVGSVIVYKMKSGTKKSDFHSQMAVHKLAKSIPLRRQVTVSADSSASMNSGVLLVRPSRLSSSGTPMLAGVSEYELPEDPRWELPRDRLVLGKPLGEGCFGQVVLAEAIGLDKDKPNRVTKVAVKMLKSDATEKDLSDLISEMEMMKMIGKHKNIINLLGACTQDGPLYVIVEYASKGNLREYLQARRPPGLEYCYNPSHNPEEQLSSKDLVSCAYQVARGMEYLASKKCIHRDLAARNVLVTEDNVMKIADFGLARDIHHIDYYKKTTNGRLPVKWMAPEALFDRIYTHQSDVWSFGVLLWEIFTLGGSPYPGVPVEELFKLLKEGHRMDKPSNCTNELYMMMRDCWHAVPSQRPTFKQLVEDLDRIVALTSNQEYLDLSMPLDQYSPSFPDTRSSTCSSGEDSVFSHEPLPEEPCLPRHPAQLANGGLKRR

Row | Compound | IC50 (Hep 3B cells; [2]) [nM] | IC50 (HuH-7 cells) [nM] | IC50 (SK-HEP-1 cells; Homo sapiens, SK-HEP1, 72 h) [nM] | Peak Time tmax [1] [h] | AUC(0-t) [1] [ng·h/mL] | AUC(0-inf) [1] [ng·h/mL] | half-life [1] [h] | MRT [1] [h] | Cmax [1] [ng/mL] | IC50 (FGFR1 kinase) [nM] | IC50 (Hep 3B cells; read-out: Hep 3B IC50, Hep 3B cell proliferation, 72 hours, CellTiter-Glo) [nM] | IC50 (SK-HEP-1 cells; SK-HEP-1 cell proliferation, 72 hours, CellTiter-Glo) [nM]
1 | CO[C@@H]1CCCC1Nc1cc(NC(=O)N2CCCc3cc(CN4CCOCC4=O)c(C=O)nc32)ncc1C#N (stereo partly drawn) [Example 1, N-(5-Cyano-4-(((trans)-2-methoxycyclopentyl)amino)pyridin-2-yl)-7-formyl-6-((3-carbonylmorpholino)methyl)-3,4-dihydro-1,8-naphthyridin-1(2H)-carboxamide] | 0.7 | 3 | > 10000 | 0.5 | 1010 | 5040 | 1.1 | 1.1 | 1140 |  |  | 
2 | N#Cc1cnc(NC(=O)N2CCCc3cc(CN4CCOCC4=O)c(C=O)nc32)cc1NCCOC1CCCC1 [Example 5, N-(5-Cyano-4-((2-(cyclopentyloxy)ethyl)amino)pyridin-2-yl)-7-formyl-6-((3-carbonylmorpholino)methyl)-3,4-dihydro-1,8-naphthyridin-1(2H)-carboxamide] | 8.2 | 34.9 | > 10000 |  |  |  |  |  |  | > 10000 |  | 
3 | COC1(CNc2cc(NC(=O)N3CCCc4cc(CN5CCOCC5=O)c(C=O)nc43)ncc2C#N)CC1 [Example 9, N-(5-Cyano-4-(((1-methoxycyclopropyl)methyl)amino)pyridin-2-yl)-7-formyl-6-((3-carbonylmorpholino)methyl)-3,4-dihydro-1,8-naphthyridin-1(2H)-carboxamide] | 1.4 | 9.1 | > 10000 |  |  |  |  |  |  | > 10000 |  | 
4 | CO[C@H]1CCCC1Nc1cc(NC(=O)N2CCCc3cc(CN4CCOCC4=O)c(C=O)nc32)ncc1C#N (stereo partly drawn) [Example 15, N-(5-Cyano-4-(((cis)-2-methoxycyclopentyl)amino)pyridin-2-yl)-7-formyl-6-((3-carbonylmorpholino)methyl)-3,4-dihydro-1,8-naphthyridin-1(2H)-carboxamide] | 3 | 4.9 | > 10000 |  |  |  |  |  |  | > 10000 |  | 
5 | CO[C@@H]1CCN(c2cc(NC(=O)N3CCCc4cc(CN5CCCCOC5=O)c(C=O)nc43)ncc2C#N)C1 [Example 31, (R)-N-(5-Cyano-4-(3-methoxypyrrolidin-1-yl)pyridin-2-yl)-7-formyl-6-((2-carbonyl-1,3-oxazepin-3-yl)methyl)-3,4-dihydro-1,8-naphthyridin-1(2H)-carboxamide] |  | 6.5 | > 10000 | 2 | 1920 | 1920 | 1.27 | 4.54 | 3720 | > 10000 |  | 
6 | CO[C@H]1CCN(c2cc(NC(=O)N3CCCc4cc(CN5CCCCOC5=O)c(C=O)nc43)ncc2C#N)C1 [Example 32] | 3.1 | 5.8 | > 10000 |  |  |  |  |  |  | > 10000 |  | 
7 | N#Cc1cnc(NC(=O)N2CCCc3cc(CN4CCCCOC4=O)c(C=O)nc32)cc1N[C@H]1CCOC1 [Example 33] | 3.7 | 7.2 | > 10000 |  |  |  |  |  |  | > 10000 |  | 
8 | N#Cc1cnc(NC(=O)N2CCCc3cc(CN4CCCCOC4=O)c(C=O)nc32)cc1N[C@@H]1CCOC1 [Example 34, (R)-N-(5-Cyano-4-((tetrahydrofuran-3-yl)amino)pyridin-2-yl)-7-formyl-6-((2-carbonyl-1,3-oxazepin-3-yl)methyl)-3,4-dihydro-1,8-naphthyridin-1(2H)-carboxamide] | 2.3 | 4.9 | > 10000 |  |  |  |  |  |  | > 10000 |  | 
9 | COC[C@@H](C)Oc1cc(NC(=O)N2CCCc3cc(CN4CCCCOC4=O)c(C=O)nc32)ncc1C#N [Example 35] | 2.2 | 4.6 | > 10000 |  |  |  |  |  |  | > 10000 |  | 
10 | CO[C@H]1CCN(c2cc(NC(=O)N3CCCc4cc(CN5C(=O)OC[C@@H]5C)c(C=O)nc43)ncc2C#N)C1 [Example 39, N-(5-Cyano-4-((S)-3-methoxypyrrolidin-1-yl)pyridin-2-yl)-7-formyl-6-(((S)-4-methyl-2-carbonyloxazolidin-3-yl)methyl)-3,4-dihydro-1,8-naphthyridin-1(2H)-carboxamide] | 39.3 | 34.6 | > 10000 |  |  |  |  |  |  | > 10000 |  | 
11 | CO[C@@H]1CCN(c2cc(NC(=O)N3CCCc4cc(CN5CCCOC5=O)c(C=O)nc43)ncc2C#N)C1 [Example 49, (R)-N-(5-Cyano-4-(3-methoxypyrrolidin-1-yl)pyridin-2-yl)-7-formyl-6-((2-carbonyl-1,3-oxazinan-3-yl)methyl)-3,4-dihydro-1,8-naphthyridin-1(2H)-carboxamide] | 4.4 | 11.3 | > 10000 |  |  |  |  |  |  | > 10000 |  | 
12 | CO[C@H]1CCN(c2cc(NC(=O)N3CCCc4cc(CN5CCCOC5=O)c(C=O)nc43)ncc2C#N)C1 [Example 50, (S)-N-(5-Cyano-4-(3-methoxypyrrolidin-1-yl)pyridin-2-yl)-7-formyl-6-((2-carbonyl-1,3-oxazinan-3-yl)methyl)-3,4-dihydro-1,8-naphthyridin-1(2H)-carboxamide] | 5.5 | 15.3 | > 10000 |  |  |  |  |  |  | > 10000 |  | 
13 | COC1CN(c2cc(NC(=O)N3CCCc4cc(CN5CCOCC5=O)c(C=O)nc43)ncc2C#N)C1 [Example 53, N-(5-Cyano-4-(3-methoxyazetidin-1-yl)pyridin-2-yl)-7-formyl-6-((3-carbonylmorpholino)methyl)-3,4-dihydro-1,8-naphthyridin-1(2H)-carboxamide] | 41.5 |  | > 10000 |  |  |  |  |  |  | > 10000 |  | 
14 | COc1ccncc1Nc1cc(NC(=O)N2CCCc3cc(CN4CCOCC4=O)c(C=O)nc32)ncc1C#N [Example 58, N-(5-Cyano-4-((4-methoxypyridin-3-yl)amino)pyridin-2-yl)-7-formyl-6-((3-carbonylmorpholino)methyl)-3,4-dihydro-1,8-naphthyridin-1(2H)-carboxamide] | 6.9 | 20.7 | > 10000 |  |  |  |  |  |  | > 10000 |  | 
15 | CO[C@H]1CCOCC1Oc1cc(NC(=O)N2CCCc3cc(CN4CCOCC4=O)c(C=O)nc32)ncc1C#N (stereo partly drawn) [Example 69, N-(5-Cyano-4-(((3,4)-trans-3-methoxytetrahydro-2H-pyran-4-yl)oxy)pyridin-2-yl) -7-formyl-6-((3-carbonylmorpholino)methyl)-3,4-dihydro-1,8-naphthyridin-1(2H)-carboxamide] |  |  |  |  |  |  |  |  |  |  | 22.6 | > 10000
